# Patent US8551984B2, “Aminopyrimidines as SYK inhibitors” (Merck Sharp & Dohme Corp., priority 2009, dated 2013)
# Structures can show the parent of a compound that is named as a salt.
# Biological target: recombinant human SYK (GST-hSYK fusion protein) (Homo sapiens, UniProt P43405)
# Experiment: biochemical
# Conditions: rhSYK Activity (IC50), recombinant human GST-SYK 5 pM, ATP 25 μM, biotinylated substrate peptide 250 nM, HTRF, 10-dose titration
# Source text: Homogeneous Time-Resolved Fluorescence (HTRF) Assay for the Recombinant Human SYK Enzyme:
row,IC50,SMILES
1,< 100 nM,"Cc1cc(Nc2nccc(C(F)(F)F)n2)cc(-c2cnc(CC(C)(C)C(=O)O)s2)c1 [Example 78, 2,2-dimethyl-3-[5-(3-methyl-5-{[4-(trifluoromethyl)pyrimidin-2-yl]amino}phenyl)-1,3-thiazol-2-yl]propanoic acid (potassium salt and TFA salt)]"
2,< 100 nM,"CCOC(=O)CCc1ncc(-c2cc(C)cc(Nc3nccc(C(F)(F)F)n3)c2)s1 [Example 79-1, Ethyl 3-[5-(3-methyl-5-{[4-(trifluoromethyl)pyrimidin-2-yl]amino}phenyl)-1,3-thiazol-2-yl]-propanoate]"
3,< 100 nM,Cc1cc(Nc2nccc(C(F)(F)F)n2)cc(-c2cnc(CCC(N)=O)s2)c1 [Example 79-2]
4,< 100 nM,Cc1cc(Nc2nccc(C(F)(F)F)n2)cc(-c2cnc(CCC(=O)N(C)C)s2)c1 [Example 79-4]
5,< 100 nM,Cc1cc(Nc2nccc(C(F)(F)F)n2)cc(-c2cnc(CCC(=O)N3CCOCC3)s2)c1 [Example 79-5]
6,< 100 nM,Cc1cc(Nc2nccc(C(F)(F)F)n2)cc(-c2cnc(CCC(=O)NCCO)s2)c1 [Example 79-6]
7,< 100 nM,Cc1cc(Nc2nccc(C(F)(F)F)n2)cc(-c2cnc(CCc3nnco3)s2)c1 [Example 79-7]
8,< 100 nM,Cc1cc(Nc2nccc(C(F)(F)F)n2)cc(-c2cnc(CCc3nnc(C)o3)s2)c1 [Example 79-8]
9,< 100 nM,Cc1cc(Nc2nccc(C(F)(F)F)n2)cc(-c2cnc(CCc3nnc(C4CC4)o3)s2)c1 [Example 79-9]
10,< 100 nM,Cc1cc(Nc2nccc(C(F)(F)F)n2)cc(-c2cnc(CC(C)(C)C(N)=O)s2)c1 [Example 79-10]
11,< 100 nM,Cc1cc(Nc2nccc(C(F)(F)F)n2)cc(-c2cnc(CC(C)(C)C(=O)N(C)C)s2)c1 [Example 79-11]
12,< 100 nM,"Cc1cc(Nc2nccc(C(F)(F)F)n2)cc(-c2cnc(CCC(C)(C)O)s2)c1 [Example 80, 2-methyl-4-[5-(3-methyl-5-{[4-(trifluoromethyl)pyrimidin-2-yl]amino}phenyl)-1,3-thiazol-2-yl]butan-2-ol]"
13,100 to 1000 nM,"Cc1cc(Nc2nccc(C(F)(F)F)n2)cc(-c2cnc(C(C)(C)C(=O)OC(C)(C)C)s2)c1 [Example 81, tert-Butyl 2-methyl-2-[5-(3-methyl-5-{[4-(trifluoromethyl)pyrimidin-2-yl]amino}phenyl)-1,3-thiazol-2-yl]propanoate]"
14,< 100 nM,"Cc1cc(Nc2nccc(C(F)(F)F)n2)cc(-c2cnc(C(C)(C)c3nnco3)s2)c1 [Example 82, N-(3-methyl-5-{2-[2-(1,3,4-oxadiazol-2-yl)propan-2-yl]-1,3-thiazol-5-yl}phenyl)-4-(trifluoromethyl)pyrimidin-2-amine]"
15,100 to 1000 nM,"Cc1cc(Nc2nccc(C(F)(F)F)n2)cc(-c2cnc(C3(C(=O)OC(C)(C)C)CC3)s2)c1 [Example 83, tert-butyl 1-[5-(3-methyl-5-{[4-(trifluoromethyl)pyrimidin-2-yl]amino}phenyl)-1,3-thiazol-2-yl]cyclopropanecarboxylate]"
16,< 100 nM,"Cc1cc(Nc2nccc(C(F)(F)F)n2)cc(-c2cnc(C3(C(=O)O)CC3)s2)c1 [Example 84, 1-[5-(3-methyl-5-{[4-(trifluoromethyl)pyrimidin-2-yl]amino}phenyl)-1,3-thiazol-2-yl]cyclopropanecarboxylic acid (TFA salt)]"
17,< 100 nM,"Cc1cc(Nc2nccc(C(F)(F)F)n2)cc(-c2cnc(C3(c4nnco4)CC3)s2)c1 [Example 85, N-(3-methyl-5-{2-[1-(1,3,4-oxadiazol-2-yl)cyclopropyl]-1,3-thiazol-5-yl}phenyl)-4-(trifluoromethyl)pyrimidin-2-amine]"
18,< 100 nM,Cc1cc(Nc2nccc(C(F)(F)F)n2)cc(-c2cnc(C(C)(C)C(N)=O)s2)c1 [Example 85A-1]
19,< 100 nM,Cc1cc(Nc2nccc(C(F)(F)F)n2)cc(-c2cnc(C(C)(C)C(=O)N(C)C)s2)c1 [Example 85A-2]
20,< 100 nM,Cc1cc(Nc2nccc(C(F)(F)F)n2)cc(-c2cnc(C(C)(C)C(=O)N3CCOCC3)s2)c1 [Example 85A-3]
21,< 100 nM,Cc1cc(Nc2nccc(C(F)(F)F)n2)cc(-c2cnc(C(C)(C)c3nnc(C)o3)s2)c1 [Example 85A-4]
22,< 100 nM,Cc1cc(Nc2nccc(C(F)(F)F)n2)cc(-c2cnc(C3(C(=O)N(C)C)CC3)s2)c1 [Example 85B-1]
23,< 100 nM,CNC(=O)C1(c2ncc(-c3cc(C)cc(Nc4nccc(C(F)(F)F)n4)c3)s2)CC1 [Example 85B-2]
24,< 100 nM,Cc1cc(Nc2nccc(C(F)(F)F)n2)cc(-c2cnc(C3(C(N)=O)CC3)s2)c1 [Example 85B-3]
25,< 100 nM,Cc1cc(Nc2nccc(C(F)(F)F)n2)cc(-c2cnc(C3(c4nnc(C)o4)CC3)s2)c1 [Example 85B-4]

# Same assay, conditions: rhSYK Activity, Table 63
row,IC50,SMILES
1,< 100 nM,Cc1cc(Nc2nccc(C(F)(F)F)n2)cc(-c2cnc(C3(NS(N)(=O)=O)CCC3)s2)c1 [Example 63-3]
2,< 100 nM,Cc1cc(Nc2nccc(C(F)(F)F)n2)cc(-c2cnc(C(NS(N)(=O)=O)(C3CC3)C3CC3)s2)c1 [Example 63-4]

# Same assay, conditions: rhSYK Activity, Table 64, first part
row,IC50,SMILES
1,< 100 nM,Cc1cc(Nc2nccc(C(F)(F)F)n2)cc(-c2cnc(C3(NC(N)=O)COC3)s2)c1 [Example 64-1]
2,< 100 nM,Cc1cc(Nc2nccc(C3CC3)n2)cc(-c2cnc(C3(NC(N)=O)CCC3)s2)c1 [Example 64-2]
3,< 100 nM,Cc1cc(Nc2ncccn2)cc(-c2cnc(C3(NC(N)=O)CCC3)s2)c1 [Example 64-3]
4,< 100 nM,Cc1cc(Nc2ncc(F)c(C3CC3)n2)cc(-c2cnc(C3(NC(N)=O)CCC3)s2)c1 [Example 64-6]
5,< 100 nM,NC(=O)NC1(c2ncc(-c3cc(F)cc(Nc4ncc(F)c(C5CC5)n4)c3)s2)CCC1 [Example 64-7]
6,< 100 nM,COc1nc(Nc2cc(C)cc(-c3cnc(C4(NC(N)=O)CCC4)s3)c2)ncc1Cl [Example 64-8]
7,< 100 nM,Cc1cc(Nc2nccc(C(F)(F)F)n2)cc(-c2cnc(C3(NC(N)=O)CCNC(=O)CC3)s2)c1 (centres unmarked) [Example 64-9]

# Same assay, conditions: rhSYK Activity, Table 64, second part (structure)
row,IC50,SMILES
1,< 100 nM,Cc1cc(Nc2nccc(C(F)(F)F)n2)cc(-c2cnc(C(NC(N)=O)(C3CC3)C3CC3)s2)c1 [Example 64-10]

# Same assay, conditions: rhSYK Activity, Table 70
row,IC50,SMILES
1,< 100 nM,Cc1cc(Nc2nccc(C(C)(C)C)n2)cc(-c2cnc(C(C)(C)S(N)(=O)=O)s2)c1 [Example 70-1]
2,< 100 nM,Cc1cc(Nc2nccc(C(C)C)n2)cc(-c2cnc(C(C)(C)S(N)(=O)=O)s2)c1 [Example 70-2]

# Same assay, conditions: rhSYK Activity, Table 74B
row,IC50,SMILES
1,< 100 nM,Cc1cc(Nc2nccc(C(F)(F)F)n2)cc(-c2cnc(C3(S(C)(=O)=O)CCC3)s2)c1 [Example 74B-2]
2,1000 to 10000 nM,CS(=O)(=O)C1(c2ncc(-c3cc(Nc4nccc(C(F)(F)F)n4)cc([N+](=O)[O-])c3)s2)CCC1 [Example 74B-3]
3,< 100 nM,Cc1cc(Nc2nccc(C(F)(F)F)n2)cc(-c2cnc(C3(S(N)(=O)=O)CCC3)s2)c1 [Example 74B-4]

# Same assay, conditions: rhSYK Activity, table after Example 68
row,IC50,SMILES
1,100 to 1000 nM,Cc1cc(Nc2ncc(C(=O)O)cn2)cc(-c2cnc(C3(O)CCC3)s2)c1 [Example 68-1]
2,< 100 nM,OC1(c2ncc(-c3cccc(Nc4nccc(C(F)(F)F)n4)c3)s2)CCC1 [Example 68-2]

# Same assay, conditions: rhSYK Activity, table after Example 75
row,IC50,SMILES
1,< 100 nM,NS(=O)(=O)Cc1ncc(-c2cccc(Nc3nccc(C(F)(F)F)n3)c2)s1 [Example 75-1]
2,< 100 nM,COc1ccnc(Nc2cc(C)cc(-c3cnc(CS(N)(=O)=O)s3)c2)n1 [Example 75-2]
